Laboratory results published in patent publication US6107070A, “Human manganese superoxide dismutase proteins” (University of Florida, priority 1998, dated 2000).
Positions count from the first letter of the chain named.

How the values were obtained:
Type in all cases: biochemical
[1] = target: T1, human manganese superoxide dismutase (hMn SOD), wild type, SEQ ID NO:2 (Homo sapiens, UniProt P04179); assay: Decay of superoxide catalyzed by wild-type hMnSOD, pulse radiolysis; settings: obtained from Table 3 data and eqs 5-9 of Bull et al. (1991)
T1 construct: where it is then cleaved off leaving the mature protein
T1 sequence (P04179 25-222): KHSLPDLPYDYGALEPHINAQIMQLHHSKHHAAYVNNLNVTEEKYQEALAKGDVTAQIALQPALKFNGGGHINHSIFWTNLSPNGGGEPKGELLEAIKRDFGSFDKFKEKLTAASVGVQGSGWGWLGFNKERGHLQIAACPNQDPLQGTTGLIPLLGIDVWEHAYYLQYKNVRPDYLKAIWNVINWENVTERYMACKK
Description: Experiments were carried out at the Center for Fast Kinetics Research at the University of Texas at Austin using a 4-Mev van der Graaff accelerator. A single high-dose electron pulse was used to generate superoxide radical anions from oxygen in acqueous solutions containing 10 mM sodium formate as hydroxyl radical scavenger (Schwartz, 1981) and 50 μM EDTA in addition to buffer and enzyme. All pulse radiolysis experiments were carried out at 20 ° C. The dismutation of O2^- was followed spectrophotometrically from its absorbance at 250 nm (ε=2000M^1 cm^1, Rabani and Nielson, 1969) with a path length of 2.5 cm. Progress curves for each set of 6 to 9 experiments were averaged. Exposure to ultraviolet radiation was minimized by opening a mechanical shutter a fraction of a second before each pulse.

[2] = target: T1, human manganese superoxide dismutase (hMn SOD), wild type, SEQ ID NO:2; assay: Disproportionation of superoxide by wild type hMnSOD, Example 3 (Tables 4 and 5), 20° C.
Description: (§1) Experiments were based on the stabilization of KO2 in aprotic solvent and the subsequent large dilution of this solution by an aqueous solution of enzyme in a stopped-flow apparatus, as described by McClune and Fee (1978). KO2 was dissolved in a mixture of dimethyl sulfoxide and […] (2:1 by volume; Aldrich, spectrophotometric grade) with solubility of KO2 enhanced with 18-crown-6 (Valentine and Curtis, 1975). The stopped-flow spectrophotometer (Kinetic Instruments, Ann Arbor, Mich.) was capable of efficient mixing of this solution with an acqueous solution of enzyme in buffer with a dead time between 1.5 and 2.0 ms. One drive syringe (capacity 50 μl) contained the aprotic solution of O2. This was diluted fifty-fold by the contents of a second syringe (capacity 2.5 ml) which contained enzyme, EDTA, and buffer. The decay of superoxide in initial velocity experiments and progress curves was monitored by its absorption at 250 to 300 nm. Stopped-flow experiments were carried out at […]. Four or more kinetic traces were averaged to reduce noise. Steady-state parameters were obtained by least-squares analysis of such data (Leatherbarrow (1987) "Enzfitter: a nonlinear regression data analysis program for the IBM PC" Elsevier BIOSOFT, Cambridge).
(§2) In the present study, several novel hMnSOD proteins containing substitutions of His 30 (referring to the amino acid sequence of SEQ ID NO:2) were prepared by PCR site directed mutagenesis and purified by column chromatography, as described in the Materials and Methods section above, and as also described by Hsu et al. (1996) J. Biol. Chem. 271: 1768; and Hsieh et al. (1998) Biochemistry 37: 4731. In particular, His 30 was substituted with each of Ala, Asn, Ser and Gln. The resulting novel hMnSOD proteins containing a His 30 substitution were then assayed for enzymatic activity and product inhibition at 20° C. by measuring the absorbance of superoxide at 250 nm using stopped-flow spectrophotometry, as described above in the Materials and Methods section. […]

[3] = target: T2, human manganese superoxide dismutase (hMn SOD) variant H30Q (His 30 replaced by Gln) (Homo sapiens, UniProt P04179, H54Q); assay: Disproportionation of superoxide by H30Q hMnSOD, stopped-flow, 20° C.; settings: pH 9.6, 20° C.
T2 construct: as a mature protein tagged with an extra Met at the amino terminus; made in house
T2 sequence (P04179 25-222 H54Q): T1 sequence (P04179 25-222) with H30Q
Description: as §1, §2

[4] = target: T3, human manganese superoxide dismutase (hMn SOD) variant H30A (His 30 replaced by Ala) (Homo sapiens, UniProt P04179, H54A); assay: Disproportionation of superoxide by H30A hMnSOD, stopped-flow, 20° C.; settings: pH 9.6, 20° C.
T3 construct: as a mature protein tagged with an extra Met at the amino terminus; made in house
T3 sequence (P04179 25-222 H54A): T1 sequence (P04179 25-222) with H30A
Description: as §1, §2

[5] = target: T4, human manganese superoxide dismutase (hMn SOD) variant H30E (Homo sapiens, UniProt P04179, E155Q/H54E); assay: Disproportionation of superoxide by H30E hMnSOD, 20° C.; settings: Table 4; pH 9.4, 20° C.
T4 construct: as a mature protein tagged with an extra Met at the amino terminus; made in house
T4 sequence (P04179 25-222 H54E/E155Q): T1 sequence (P04179 25-222) with H30E, E131Q

[6] = Table 4, 20° C., pH 9.4 per footnote

[O]O [superoxide]
Km [1]: 50 µM
kcat [2, 6]: 40 ms^.1
kcat /Km [2, 6]: 800 μM^.1 S^.1
ko /[E] (rate constant for the zero-order region of catalysis) ([2]; Table 5, pH 9.6, 20° C.): 500 S^.1
kcat ([3]; Table 4): 1.0 ms^.1
kcat /Km ([3]; Table 4): 43 μM^.1 S^.1
ko /[E] (rate constant for the zero-order region of catalysis) ([3]; Table 5): 510 S^.1
kcat ([4]; Table 4): 1.9 ms^.1
kcat /Km ([4]; Table 4): 20 μM^.1 S^.1
ko /[E] (rate constant for the zero-order region of catalysis) ([4]; Table 5): 610 S^.1
kcat [5]: 0.052 ms^.1
kcat /Km [5]: 0.63 μM^.1 S^.1
